Marks after values point to notes of the source that are not given here.

The subject of the first experiment is third stage larvae of Haemonchus contortus. As to the kind of experiment: Haemonchus contortus, Larvae Stage 3 (HcL3) In Vitro Assay. Type of experiment: cell-based. The settings on record: Haemonchus contortus third stage larvae in vitro; class mark appended to the Ex # in Table 3.
Consider `Cc1nc(Cc2ccc(C[C@H]3OC(=O)[C@H](CC(C)C)N(C)C(=O)[C@@H](C)OC(=O)[C@H](CC(C)C)N(C)C(=O)[C@@H](Cc4ccc(Cc5nc(C)oc5C)cc4)OC(=O)[C@H](CC(C)C)N(C)C(=O)[C@@H](C)OC(=O)[C@H](CC(C)C)N(C)C3=O)cc2)c(C)o1` [Example 3-81], for which the “HcL3 MED” value was 3-81^ (Examples with a carrot (^) have HcL3 MED values>1 and ≤3.3 μM).
On to `CC(C)C[C@H]1C(=O)O[C@H](Cc2ccc(Cc3ccnn3C(C)C)cc2)C(=O)N(C)[C@@H](CC(C)C)C(=O)O[C@H](C)C(=O)N(C)[C@@H](CC(C)C)C(=O)O[C@H](Cc2ccc(Cc3ccnn3C(C)C)cc2)C(=O)N(C)[C@@H](CC(C)C)C(=O)O[C@H](C)C(=O)N1C` [Example 3-305], for which the “HcL3 MED” value was 3-305* (Examples with an asterisk (*) have HcL3 MED values≤1 μM).
Take `CC(C)C[C@H]1C(=O)O[C@H](Cc2ccc(Cc3cnccc3C3CC3)cc2)C(=O)N(C)[C@@H](CC(C)C)C(=O)O[C@H](C)C(=O)N(C)[C@@H](CC(C)C)C(=O)O[C@H](Cc2ccc(Cc3cnccc3C3CC3)cc2)C(=O)N(C)[C@@H](CC(C)C)C(=O)O[C@H](C)C(=O)N1C` [Example 3-306]: the “HcL3 MED” value is 3-306* (Examples with an asterisk (*) have HcL3 MED values≤1 μM).
On the same count and under the same terms, for `Cc1nnsc1C(O)c1ccc(C[C@H]2OC(=O)[C@H](CC(C)C)N(C)C(=O)[C@@H](C)OC(=O)[C@H](CC(C)C)N(C)C(=O)[C@@H](Cc3ccc(C(O)c4snnc4C)cc3)OC(=O)[C@H](CC(C)C)N(C)C(=O)[C@@H](C)OC(=O)[C@H](CC(C)C)N(C)C2=O)cc1` (stereo partly shown) [Example 3-126] the value was 3-126* (Examples with an asterisk (*) have HcL3 MED values≤1 μM); for `CC(C)C[C@H]1C(=O)O[C@H](Cc2ccc(Cc3cccnc3)cc2)C(=O)N(C)[C@@H](CC(C)C)C(=O)O[C@H](C)C(=O)N(C)[C@@H](CC(C)C)C(=O)O[C@H](Cc2ccc(Cc3cccnc3)cc2)C(=O)N(C)[C@@H](CC(C)C)C(=O)O[C@H](C)C(=O)N1C` [Example 3-3], 3-3^ (Examples with a carrot (^) have HcL3 MED values>1 and ≤3.3 μM).

Staying with this experiment, now noted: approximately 96 hours incubation; multiple-resistant field isolate.
`Cc1nc(C)c(Cc2ccc(C[C@H]3OC(=O)[C@H](CC(C)C)N(C)C(=O)[C@@H](C)OC(=O)[C@H](CC(C)C)N(C)C(=O)[C@@H](Cc4ccccc4)OC(=O)[C@H](CC(C)C)N(C)C(=O)[C@@H](C)OC(=O)[C@H](CC(C)C)N(C)C3=O)cc2)o1` [Example 4-91]: the “HcL3 MED (symbol after Ex#)” value was 4-91^ (Examples with a carrot (^) have HcL3 MED values>1 and ≤3.3 μM).
The same measure, in the same setting: next, `Cc1nn(C)cc1Cc1ccc(C[C@H]2OC(=O)[C@H](CC(C)C)N(C)C(=O)[C@@H](C)OC(=O)[C@H](CC(C)C)N(C)C(=O)[C@@H](Cc3ccccc3)OC(=O)[C@H](CC(C)C)N(C)C(=O)[C@@H](C)OC(=O)[C@H](CC(C)C)N(C)C2=O)cc1` [Example 4-3]: 4-3^ (Examples with a carrot (^) have HcL3 MED values>1 and ≤3.3 μM).
For the compound `Cc1csc(Cc2ccc(C[C@H]3OC(=O)[C@H](CC(C)C)N(C)C(=O)[C@@H](C)OC(=O)[C@H](CC(C)C)N(C)C(=O)[C@@H](Cc4ccccc4)OC(=O)[C@H](CC(C)C)N(C)C(=O)[C@@H](C)OC(=O)[C@H](CC(C)C)N(C)C3=O)cc2)n1` [Example 4-90], the “HcL3 MED (symbol after Ex#)” value is 4-90^ (Examples with a carrot (^) have HcL3 MED values>1 and ≤3.3 μM).
With `Cc1nnsc1Cc1ccc(C[C@H]2OC(=O)[C@H](CC(C)C)N(C)C(=O)[C@@H](C)OC(=O)[C@H](CC(C)C)N(C)C(=O)[C@@H](Cc3ccccc3)OC(=O)[C@H](CC(C)C)N(C)C(=O)[C@@H](C)OC(=O)[C@H](CC(C)C)N(C)C2=O)cc1` [Example 4-116], the “HcL3 MED (symbol after Ex#)” value is 4-116^ (Examples with a carrot (^) have HcL3 MED values>1 and ≤3.3 μM).
Consider `CC(C)C[C@H]1C(=O)O[C@H](Cc2ccc(Cc3nccs3)cc2)C(=O)N(C)[C@@H](CC(C)C)C(=O)O[C@H](C)C(=O)N(C)[C@@H](CC(C)C)C(=O)O[C@H](Cc2ccccc2)C(=O)N(C)[C@@H](CC(C)C)C(=O)O[C@H](C)C(=O)N1C` [Example 4-31], for which the “HcL3 MED (symbol after Ex#)” value is 4-31* (Examples with an asterisk (*) have HcL3 MED values≤1 μM).

The values above are taken from patent publication US11771738B2 (Zoetis Services LLC, priority 2018, dated 2023).
